Test system: severe pain in the neck and shoulders
Experiment: Clinical testing: severe pain in the neck and shoulders after a car accident
Format: in vivo, human
Details: person; had not slept continuously any night since the accident
Source text: A person was involved in a car accident seven years earlier and had developed severe pain in the neck and shoulders. The patient had used non-steroidal anti-inflammatory drugs for a long time without significant effect. They had not slept continuously any night since the accident.
The patient tried the composition of Example 19 by administering topically to the areas of pain. They claimed a pain relieving effect after one minute and had no or very little pain for the following 2 to 3 days. After administration of the composition of Example 13 they were able to sleep for about 10 hours each of the next two nights.

SMILES: CNCC(O)C(O)C(O)C(O)CO.CNCC(O)C(O)C(O)C(O)CO.O=C([O-])CN(CCN(CC(=O)O)CC(=O)O)CC(=O)[O-].[Sr+2] [Example 13, SrEDTA Dimeglumine Salt]
- sleep each of the next two nights: about 10 hours

Reference: patent publication US9050312B2, “Strontium compound for treatment of sub-dermal soft tissue pain” (SANTOSOLVE AS, priority 2001, dated 2015)
